This is an account of results in patent US20240228506A1, “RIPK1 INHIBITORS AND METHODS OF USE” (Merck Sharp & Dohme LLC, priority 2021, published 2024).

Each structure is given as a SMILES string.

The target of this assay is T1, GST-RIPK1 (recombinant GST-RIPK1 kinase domain (residues 1-327)) (Homo sapiens, UniProt Q13546).
T1 construct: recombinant GST-RIPK1 kinase domain (residues 1-327) enzyme; made in house; host or cells: baculovirus-transfected Sf21 insect cells
T1 sequence (Q13546 1-327): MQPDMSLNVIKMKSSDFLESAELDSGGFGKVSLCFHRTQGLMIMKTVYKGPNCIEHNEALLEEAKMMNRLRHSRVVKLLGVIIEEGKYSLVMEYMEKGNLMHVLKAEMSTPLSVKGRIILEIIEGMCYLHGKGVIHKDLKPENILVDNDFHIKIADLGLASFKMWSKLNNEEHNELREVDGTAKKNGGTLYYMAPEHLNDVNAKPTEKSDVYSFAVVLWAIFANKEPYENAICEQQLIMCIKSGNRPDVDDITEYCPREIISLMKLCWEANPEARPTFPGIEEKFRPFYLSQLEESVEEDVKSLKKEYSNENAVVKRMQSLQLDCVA
The experiment in a line: RIPK1-ADP-Glo enzymatic assay. Format: biochemical. Particulars: 25 nM GST-RIPK1, 300 μM ATP, 3 μM dephosphorylated-MBP; 30 minutes pre-incubation, 150 minutes reaction; ten-point titration. The essentials:
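Ten-point 1:3 titrations from 100000 nM, 1% DMSO, were preincubated 30 min with 25 nM GST-RIPK1 (1-327) before starting with 300 μM ATP plus 3 μM dephosphorylated MBP; 150 min reaction. ADP-Glo luminescence measured ATP-to-ADP conversion; EC50 by four-parameter sigmoidal regression.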
For `O=C(N1C[C@@H]2C[C@H]1c1cncc(C#Cc3cnccn3)c1O2)C12CCC(C(F)(F)F)(CC1)C2` [Compound 2-61, ((2S,5S)-9-(pyrazin-2-ylethynyl)-2,3-dihydro-2,5-methanopyrido[3,4-f][1,4]oxazepin-4(5H)-yl)(4-(trifluoromethyl)bicyclo [2.2.1]heptan-1-yl)methanone], the concentration for half-maximal inhibition (IC50) was determined as 22 nM.
The result for `COC(C)(C)C(=O)N1C[C@@H]2C[C@H]1c1cncc(C#N)c1O2` [Compound 1-24, (2S,5S)-4-(2-methoxy-2-methylpropanoyl)-2,3,4,5-tetrahydro-2,5-methanopyrido[3,4-f][1,4]oxazepine-9-carbonitrile] reads 288 nM.
The result for `CC(C)(C)C(=O)N1C[C@@H]2C[C@H]1c1cncc(C#CC(O)(c3ccccc3)C(F)(F)F)c1O2` (stereo partly drawn) [Compound 2-36, 2,2-dimethyl-1-((2S,5S)-9-(4,4,4-trifluoro-3-hydroxy-3-phenylbut-1-yn-1-yl)-2,3-dihydro-2,5-methanopyrido[3,4-f][1,4]oxazepin-4(5H)-yl)propan-1-one] reads 525 nM; that for `CC(C)(C(=O)N1C[C@@H]2C[C@H]1c1cncc(C#Cc3ccc(F)cc3F)c1O2)C(F)F` [Compound 2-43, 1-((2S,5S)-9-((2,4-difluorophenyl)ethynyl)-2,3-dihydro-2,5-methanopyrido[3,4-f][1,4]oxazepin-4(5H)-yl)-3,3-difluoro-2,2-dimethylpropan-1-one], 48 nM.
The result for `O=C(N1C[C@@H]2C[C@H]1c1cncc(Cl)c1O2)C12CCC(C1)C2` [Compound 2-29, bicyclo[2.1.1]hexan-1-yl((2S,5S)-9-chloro-2,3-dihydro-2,5-methanopyrido[3,4-f][1,4]oxazepin-4(5H)-yl)methanone] reads 124 nM; that for `CCC1(C(=O)N2C[C@@H]3C[C@H]2c2cncc(C#N)c2O3)CC1` [Compound 1-74, (2S,5S)-4-(1-ethylcyclopropane-1-carbonyl)-2,3,4,5-tetrahydro-2,5-methanopyrido[3,4-f][1,4]oxazepine-9-carbonitrile], 347 nM; that for `CCC(C)(C)C(=O)N1C[C@@H]2C[C@H]1c1cncc(C#N)c1O2` [Compound 1-4, (2S,5S)-4-(2,2-dimethylbutanoyl)-2,3,4,5-tetrahydro-2,5-methanopyrido[3,4-f][1,4]oxazepine-9-carbonitrile], 13 nM.
With `N#Cc1cncc2c1O[C@H]1C[C@@H]2N(C(=O)C23CCC(CC2)OC3)C1` [Compound 1-26, (2S,5S)-4-(2-oxabicyclo[2.2.2]octane-4-carbonyl)-2,3,4,5-tetrahydro-2,5-methanopyrido[3,4-f][1,4]oxazepine-9-carbonitrile], the 50% inhibitory concentration (IC50) came out at 313 nM.
With `N#Cc1cncc2c1O[C@H]1C[C@@H]2N(C(=O)C23CCC(CC2)C3)C1` [Compound 1-6, (2S,5S)-4-(bicyclo[2.2.1]heptane-1-carbonyl)-2,3,4,5-tetrahydro-2,5-methanopyrido[3,4-f][1,4]oxazepine-9-carbonitrile], the IC50 is 11 nM.
For the molecule `CC(C)(C(=O)N1C[C@@H]2C[C@H]1c1cc(F)cnc1O2)C(F)F` [Compound 3-1, 3,3-Difluoro-1-((2S,5S)-7-fluoro-2,3-dihydro-2,5-methanopyrido[3,2-f][1,4]oxazepin-4(5H)-yl)-2,2-dimethylpropan-1-one], the IC50 is 317 nM.
Take `CC(C)(C)C(=O)N1C[C@@H]2C[C@H]1c1cncc(C#Cc3ccccc3)c1O2` [Compound 2-20, 2,2-Dimethyl-1-((2S,5S)-9-(phenylethynyl)-2,3-dihydro-2,5-methanopyrido[3,4-f][1,4]oxazepin-4(5H)-yl)propan-1-one]: the IC50 was found to be 72 nM.
For `CC(C)(C)C(=O)N1C[C@@H]2C[C@H]1c1cncc(Br)c1O2` [Compound 2-8, 1-((2S,5S)-9-bromo-2,3-dihydro-2,5-methanopyrido[3,4-f][1,4]oxazepin-4(5H)-yl)-2,2-dimethylpropan-1-one], the IC50 turned out to be 394 nM.
Under `N#Cc1cncc2c1O[C@H]1C[C@@H]2N(C(=O)C2(C(F)F)CCCO2)C1` (stereo partly drawn) [Compound 1-60, (2S,5S)-4-(2-(difluoromethyl)tetrahydro-furan-2-carbonyl)-2,3,4,5-tetrahydro-2,5-methanopyrido[3,4-f][1,4]oxazepine-9-carbonitrile] stands 230 nM; under `N#Cc1cc(N2CCC(F)(C(=O)N3C[C@@H]4C[C@H]3c3cncc(C#N)c3O4)CC2)ncn1` [Compound 1-52, (2S,5S)-4-(1-(6-cyanopyrimidin-4-yl)-4-fluoropiperidine-4-carbonyl)-2,3,4,5-tetrahydro-2,5-methanopyrido[3,4-f][1,4]oxazepine-9-carbonitrile], 116 nM.
As for `CC(C)(CF)C(=O)N1C[C@@H]2C[C@H]1c1cncc(C#N)c1O2` [Compound 1-42, (2S,5S)-4-(3-fluoro-2,2-dimethylpropanoyl)-2,3,4,5-tetrahydro-2,5-methanopyrido[3,4-f][1,4]oxazepine-9-carbonitrile], the IC50 is 114 nM.
For `N#Cc1cncc2c1O[C@H]1C[C@@H]2N(C(=O)C23CCCC2C3(F)F)C1` (stereo partly drawn) [Compound 1-81, (2S,5S)-4-(6,6-difluorobicyclo[3.1.0]hexane-1-carbonyl)-2,3,4,5-tetrahydro-2,5-methanopyrido[3,4-f][1,4]oxazepine-9-carbonitrile], the IC50 came out at 93 nM.
Regarding `Cc1ccncc1C#Cc1cncc2c1O[C@H]1C[C@@H]2N(C(=O)C23CCC(C(F)(F)F)(CC2)C3)C1` [Compound 2-63, ((2S,5S)-9-((4-methylpyridin-3-yl)ethynyl)-2,3-dihydro-2,5-methanopyrido[3,4-f][1,4]oxazepin-4(5H)-yl)(4-(trifluoromethyl)bicyclo [2.2.1]heptan-1-yl)methanone], the IC50 was found to be 14 nM.
The result for `N#CCc1ccc(C#Cc2cncc3c2O[C@H]2C[C@@H]3N(C(=O)C34CCC(F)(CC3)C4)C2)cc1` [Compound 2-105] reads 18 nM.
`O=C(N1C[C@@H]2C[C@H]1c1cncc(F)c1O2)C12CCC(CC1(F)F)C2` (single isomer, unassigned) [Compound 2-19, (2,2-(S or R)-difluorobicyclo[2.2.1]heptan-1-yl)((2S,5S)-9-fluoro-2,3-dihydro-2,5-methanopyrido[3,4-f][1,4]oxazepin-4(5H)-yl)methanone]: the IC50 came out at 453 nM.
Under `CC(C)(C(=O)N1C[C@@H]2C[C@H]1c1cncc(C#Cc3ccc(C(F)(F)F)nc3)c1O2)C(F)F` [Compound 2-86, 3,3-difluoro-2,2-dimethyl-1-((2S,5S)-9-((6-(trifluoromethyl)pyridin-3-yl)ethynyl)-2,3-dihydro-2,5-methanopyrido[3,4-f][1,4]oxazepin-4(5H)-yl)propan-1-one] stands 31 nM.
Take `CC(C)(C(=O)N1C[C@@H]2C[C@H]1c1cncc(C#CCC3CCOCC3)c1O2)C(F)F` [Compound 2-107, 3,3-difluoro-2,2-dimethyl-1-((2S,5S)-9-(3-(tetrahydro-2H-pyran-4-yl)prop-1-yn-1-yl)-2,3-dihydro-2,5-methanopyrido[3,4-f][1,4]oxazepin-4(5H)-yl)propan-1-one]: the IC50 came to 150 nM.
Consider `CC(C)(C(=O)N1C[C@@H]2C[C@H]1c1cncc(C#Cc3ccnc(N)c3)c1O2)C(F)F` [Compound 2-39, 1-((2S,5S)-9-((2-aminopyridin-4-yl)ethynyl)-2,3-dihydro-2,5-methanopyrido[3,4-f][1,4]oxazepin-4(5H)-yl)-3,3-difluoro-2,2-dimethylpropan-1-one], for which the IC50 worked out at 24 nM.
Regarding `N#Cc1cncc2c1C[C@H]1C[C@@H]2N(C(=O)C23CCC(C(F)(F)F)(CC2)C3)C1` (single isomer, unassigned) [Compound 5-6], the IC50 was 123 nM.
For the molecule `O=C(N1C[C@@H]2C[C@H]1c1cncnc1O2)C12CCC(F)(CC1)C2` [Compound 3-3, ((5S,8S)-7,8-Dihydro-5,8-methanopyrimido[5,4-f][1,4]oxazepin-6(5H)-yl)(4-fluorobicyclo[2.2.1]heptan-1-yl)methanone], the IC50 was 377 nM.
With `COC(C)(C(=O)N1C[C@@H]2C[C@H]1c1cncc(C#N)c1O2)C1CC1` (mixture of isomers) [Compound 1-62, (2S,5S)-4-(2-(S and R)-cyclopropyl-2-methoxypropanoyl)-2,3,4,5-tetrahydro-2,5-methanopyrido[3,4-f][1,4]oxazepine-9-carbonitrile], the IC50 stood at 444 nM.
On to `O=C(N1C[C@@H]2C[C@H]1c1cncc(C#Cc3cccnn3)c1O2)C12CCC(C(F)(F)F)(CC1)C2` [Compound 2-51, ((2S,5S)-9-(pyridazin-3-ylethynyl)-2,3-dihydro-2,5-methanopyrido[3,4-f][1,4]oxazepin-4(5H)-yl)(4-(trifluoromethyl)bicyclo [2.2.1]heptan-1-yl)methanone], for which the IC50 came to 17 nM.
The result for `N#Cc1cncc2c1O[C@H]1C[C@@H]2N(C(=O)C2(C#N)CCC2)C1` [Compound 1-110, (2S,5S)-4-(1-cyanocyclobutane-1-carbonyl)-2,3,4,5-tetrahydro-2,5-methanopyrido[3,4-f][1,4]oxazepine-9-carbonitrile] reads 129 nM; that for `N#Cc1cncc2c1O[C@H]1C[C@@H]2N(C(=O)C2(F)CC(Oc3ccc(F)cc3F)C2)C1` (single isomer, unassigned) [Compound 1-106, (2S,5S)-4-(3-(2,4-difluorophenoxy)-1-(R or S)-fluorocyclobutane-1-carbonyl)-2,3,4,5-tetrahydro-2,5-methanopyrido[3,4-f][1,4]oxazepine-9-carbonitrile], 60 nM.

One may read the IC50 as the concentration at which inhibition is half-maximal.
